Tests used:
[1] = target: T1, α6/3β2β3 nAChRs (Homo sapiens, UniProt Q15825)
[2] = target: T2, α3β4α5 nAChRs (Homo sapiens, UniProt P30926+P32297)
[3] = target: T1, α6/3β2β3 nAChRs; assay: cell-based; details: read-out: Agonist Effect Emax
[4] = target: T2, α3β4α5 nAChRs; assay: cell-based; details: read-out: Agonist Effect Emax
[5] = target: α4β2 nAChRs (Homo sapiens, UniProt P17787+P43681); assay: cell-based; type: cell-based
[6] = target: α7 nAChRs (Homo sapiens, UniProt P36544); type: cell-based
Chain of α7 nAChRs (P36544 23-502): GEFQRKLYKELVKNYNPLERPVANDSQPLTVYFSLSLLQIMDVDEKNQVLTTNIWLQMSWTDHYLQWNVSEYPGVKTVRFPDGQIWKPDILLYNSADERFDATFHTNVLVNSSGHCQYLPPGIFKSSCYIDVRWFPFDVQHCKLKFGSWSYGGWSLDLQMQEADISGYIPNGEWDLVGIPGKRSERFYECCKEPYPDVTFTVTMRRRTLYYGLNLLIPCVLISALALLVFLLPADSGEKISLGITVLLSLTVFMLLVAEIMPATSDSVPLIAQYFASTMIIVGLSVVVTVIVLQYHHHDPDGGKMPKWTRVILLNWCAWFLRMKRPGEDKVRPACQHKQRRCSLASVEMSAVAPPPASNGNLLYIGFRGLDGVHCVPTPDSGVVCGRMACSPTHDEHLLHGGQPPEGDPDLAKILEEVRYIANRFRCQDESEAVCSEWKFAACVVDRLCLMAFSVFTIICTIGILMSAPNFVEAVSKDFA

[7] = rat, in vivo; cited from earlier work

T1 sequence (Q15825 26-239 limits assumed): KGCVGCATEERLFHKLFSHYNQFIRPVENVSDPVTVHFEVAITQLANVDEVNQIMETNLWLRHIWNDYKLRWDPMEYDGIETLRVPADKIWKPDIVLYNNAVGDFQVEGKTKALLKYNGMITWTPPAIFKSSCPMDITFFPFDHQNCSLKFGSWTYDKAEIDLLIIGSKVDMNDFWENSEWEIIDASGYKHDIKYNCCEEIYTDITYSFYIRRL
T1 sequence (P17787 26-238 limits assumed, further chain): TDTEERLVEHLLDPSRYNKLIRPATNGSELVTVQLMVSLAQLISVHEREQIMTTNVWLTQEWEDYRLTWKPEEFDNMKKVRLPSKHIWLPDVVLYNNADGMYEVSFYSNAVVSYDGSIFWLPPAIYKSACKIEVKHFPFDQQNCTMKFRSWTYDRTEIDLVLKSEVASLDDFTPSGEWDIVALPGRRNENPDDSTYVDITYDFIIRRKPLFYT
T1 sequence (Q05901 22-237 limits assumed, further chain): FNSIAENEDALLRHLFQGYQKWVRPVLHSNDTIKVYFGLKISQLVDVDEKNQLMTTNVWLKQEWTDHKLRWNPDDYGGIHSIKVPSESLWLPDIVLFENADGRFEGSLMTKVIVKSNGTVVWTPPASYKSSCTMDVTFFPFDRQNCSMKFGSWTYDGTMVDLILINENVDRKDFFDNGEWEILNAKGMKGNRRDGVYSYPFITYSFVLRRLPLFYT
Chain of α4β2 nAChRs (P43681 29-627 limits assumed): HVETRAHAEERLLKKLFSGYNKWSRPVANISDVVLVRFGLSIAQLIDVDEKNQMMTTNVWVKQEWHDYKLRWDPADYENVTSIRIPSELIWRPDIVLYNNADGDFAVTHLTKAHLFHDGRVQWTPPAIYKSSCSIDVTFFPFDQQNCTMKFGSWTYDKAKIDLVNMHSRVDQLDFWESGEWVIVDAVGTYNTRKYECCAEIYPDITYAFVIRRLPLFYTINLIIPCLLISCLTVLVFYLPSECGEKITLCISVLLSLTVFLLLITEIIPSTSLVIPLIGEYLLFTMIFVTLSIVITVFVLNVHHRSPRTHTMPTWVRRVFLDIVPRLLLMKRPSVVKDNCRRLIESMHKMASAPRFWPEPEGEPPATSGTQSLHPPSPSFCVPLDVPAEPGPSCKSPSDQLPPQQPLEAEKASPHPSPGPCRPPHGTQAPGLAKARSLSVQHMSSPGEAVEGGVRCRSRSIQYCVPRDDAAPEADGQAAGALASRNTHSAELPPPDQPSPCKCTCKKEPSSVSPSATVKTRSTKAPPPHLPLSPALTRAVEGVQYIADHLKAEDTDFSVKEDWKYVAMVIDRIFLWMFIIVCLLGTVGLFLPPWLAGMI
Chain of α4β2 nAChRs (P17787 26-502): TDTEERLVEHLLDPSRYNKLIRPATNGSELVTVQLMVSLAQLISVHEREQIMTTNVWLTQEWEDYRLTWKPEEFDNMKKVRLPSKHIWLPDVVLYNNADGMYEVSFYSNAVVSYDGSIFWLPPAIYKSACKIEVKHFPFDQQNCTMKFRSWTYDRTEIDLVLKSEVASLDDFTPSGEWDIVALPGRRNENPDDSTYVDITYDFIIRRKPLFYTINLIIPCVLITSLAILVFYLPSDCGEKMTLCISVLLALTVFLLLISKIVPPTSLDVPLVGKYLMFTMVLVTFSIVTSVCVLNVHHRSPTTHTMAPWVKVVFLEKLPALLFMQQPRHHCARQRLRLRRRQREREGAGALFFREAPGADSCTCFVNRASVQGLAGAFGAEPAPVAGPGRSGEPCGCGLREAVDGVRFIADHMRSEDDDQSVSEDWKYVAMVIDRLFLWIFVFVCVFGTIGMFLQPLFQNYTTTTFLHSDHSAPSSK
T2 sequence (P32297 32-505): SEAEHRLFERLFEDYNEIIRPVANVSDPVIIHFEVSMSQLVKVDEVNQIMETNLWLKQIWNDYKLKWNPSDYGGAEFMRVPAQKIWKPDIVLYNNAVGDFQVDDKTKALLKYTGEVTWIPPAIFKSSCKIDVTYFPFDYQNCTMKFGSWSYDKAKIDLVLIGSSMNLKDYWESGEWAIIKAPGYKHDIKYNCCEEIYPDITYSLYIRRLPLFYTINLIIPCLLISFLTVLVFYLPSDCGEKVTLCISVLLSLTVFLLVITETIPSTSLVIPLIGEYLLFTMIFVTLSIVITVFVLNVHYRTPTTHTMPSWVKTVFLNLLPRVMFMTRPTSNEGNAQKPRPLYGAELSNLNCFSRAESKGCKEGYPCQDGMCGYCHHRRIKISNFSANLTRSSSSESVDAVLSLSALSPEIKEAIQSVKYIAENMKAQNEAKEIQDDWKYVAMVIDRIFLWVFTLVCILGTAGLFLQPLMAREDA
T2 sequence (P30926 22-498): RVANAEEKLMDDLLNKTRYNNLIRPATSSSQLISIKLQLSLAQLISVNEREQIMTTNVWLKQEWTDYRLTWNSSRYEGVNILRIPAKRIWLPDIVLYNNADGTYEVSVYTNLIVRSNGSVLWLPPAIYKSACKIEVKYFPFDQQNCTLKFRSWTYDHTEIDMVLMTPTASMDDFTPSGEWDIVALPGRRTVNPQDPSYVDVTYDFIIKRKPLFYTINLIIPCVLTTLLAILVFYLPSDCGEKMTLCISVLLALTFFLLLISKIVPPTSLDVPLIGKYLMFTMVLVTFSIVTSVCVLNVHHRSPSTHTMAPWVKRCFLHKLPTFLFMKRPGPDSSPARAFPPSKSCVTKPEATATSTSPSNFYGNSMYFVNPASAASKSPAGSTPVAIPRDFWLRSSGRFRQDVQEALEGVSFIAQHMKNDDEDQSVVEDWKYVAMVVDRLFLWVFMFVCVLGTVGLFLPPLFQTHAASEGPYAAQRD
T2 sequence (P30532 23-468 partner): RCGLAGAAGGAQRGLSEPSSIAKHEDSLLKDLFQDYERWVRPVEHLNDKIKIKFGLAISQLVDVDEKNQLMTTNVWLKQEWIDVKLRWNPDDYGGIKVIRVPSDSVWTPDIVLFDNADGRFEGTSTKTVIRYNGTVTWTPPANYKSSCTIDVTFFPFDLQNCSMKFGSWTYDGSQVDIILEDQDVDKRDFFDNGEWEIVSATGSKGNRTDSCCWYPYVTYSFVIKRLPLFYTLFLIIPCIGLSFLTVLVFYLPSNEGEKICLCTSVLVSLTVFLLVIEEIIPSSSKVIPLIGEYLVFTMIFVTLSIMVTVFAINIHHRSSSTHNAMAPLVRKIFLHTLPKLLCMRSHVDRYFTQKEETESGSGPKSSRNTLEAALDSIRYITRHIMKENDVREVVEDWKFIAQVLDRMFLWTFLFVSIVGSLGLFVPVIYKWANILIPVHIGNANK

SMILES | Agonist Effect Hillslope [1] | Antagonist Effect Hillslope [1] | Agonist Effect Hillslope [2] | Antagonist Effect Hillslope [2] | Emax [3] [%] | Emax [4] [%] | Agonist Effect Hillslope [5] | Antagonist Effect Hillslope [5] | Agonist Effect Hillslope [6] | Antagonist Effect Hillslope [6] | Agonist Effect Emax [1] [%] | Agonist Effect Emax [2] [%] | agonist character at human α4β2 nAChRs [5] | Emax ([5]; read-out: Agonist Effect Emax) [%] | agonist character at human α7 nAChRs [6] | agonist character at human α6/3β2β3 nAChRs [1] | agonist character at human α3β4α5 nAChRs [2] | carcinogenicity [7]
CN1CCCC1c1cccnc1 (racemic) [Synthetic RS racemic nicotine, RS-Nicotine] | −0.67 | 1.36 | −2.13 | 1.52 | 91 | 65 | – | – | – | – | – | – | – | – | – | – | – | –
CN1CCC[C@H]1c1cccnc1 [Alchem S nicotine, S nicotine] | −0.81 | 0.97 | −1.46 | 1.34 | – | – | −0.81 | 1.01 | −3.15 | 3.06 | 95 | 87 | – | – | – | – | – | –
CN1CCCC1c1cccnc1 (stereo not drawn) [Ref. nicotine (Sigma-Aldrich), nicotine] | −0.74 | 0.72 | −1.48 | 1.59 | 100 | 100 | −0.80 | 0.85 | −2.23 | – | – | – | – | – | – | – | – | –
CN1CCC[C@H]1c1cccnc1 [Sigma-Aldrich S nicotine, S nicotine] | −0.69 | 0.96 | −1.91 | 1.38 | – | – | −0.84 | 0.94 | −2.49 | 2.76 | 100 | 84 | – | – | – | – | – | –
CN1CCC[C@@H]1c1cccnc1 [Synthetic R nicotine, R nicotine] | −0.92 | 1.07 | −2.37 | 0.95 | 70 | 21 | −0.87 | 0.67 | −2.37 | 2.55 | – | – | partial agonist | 28 | full, weak agonist | full, weak agonist | partial, weak agonist | –
CN1CCC[C@H]1c1cccnc1 [Synthetic S nicotine, S nicotine] | −0.70 | 1.10 | −1.48 | 1.11 | 97 | 96 | – | – | – | – | – | – | – | – | – | – | – | –
CN1CCCC1c1cccnc1 (stereo not drawn) [synthetic nicotine, nicotine] | – | – | – | – | – | – | – | – | – | – | – | – | – | – | – | – | – | not carcinogenic
